Columns and labels:
hA2B AR = molecular target: T1, hA2B AR (Homo sapiens, UniProt P29275); test: Inhibition of NECA stimulated adenylyl cyclase activity (cAMP assay) in CHO cells expressing hA2B receptor; format: cell-based; conditions: for inhibition at 10 µM: CHO, at 10 μM of tested compound, cAMP assay, read-out: hA2BAR percentage of inhibition (I%); for IC50: NECA stimulated cAMP, hA2B CHO cells, read-out: hA2BAR IC50 (potency in cAMP assay)
T1 construct: expressed in transfected cells; host or cells: CHO cells
T1 sequence (P29275 1-332): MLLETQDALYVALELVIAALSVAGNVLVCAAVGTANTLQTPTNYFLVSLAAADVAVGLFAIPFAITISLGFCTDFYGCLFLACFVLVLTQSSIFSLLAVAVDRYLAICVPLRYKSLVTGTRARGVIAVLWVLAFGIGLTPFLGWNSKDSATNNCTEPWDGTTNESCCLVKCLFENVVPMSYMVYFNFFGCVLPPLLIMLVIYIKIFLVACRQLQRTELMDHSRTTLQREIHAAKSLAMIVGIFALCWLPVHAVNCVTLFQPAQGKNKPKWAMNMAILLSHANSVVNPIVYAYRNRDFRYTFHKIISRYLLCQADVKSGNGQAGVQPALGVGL
Source text: At the end of the experiments, plates were read with the Perkin Elmer EnSight Multimode Plate Reader.

hA1 AR = molecular target: T2, hA1 AR (Homo sapiens, UniProt P30542); test: Competition binding of [3H]DPCPX to hA1 AR in CHO cell membranes
T2 sequence (P30542 1-326): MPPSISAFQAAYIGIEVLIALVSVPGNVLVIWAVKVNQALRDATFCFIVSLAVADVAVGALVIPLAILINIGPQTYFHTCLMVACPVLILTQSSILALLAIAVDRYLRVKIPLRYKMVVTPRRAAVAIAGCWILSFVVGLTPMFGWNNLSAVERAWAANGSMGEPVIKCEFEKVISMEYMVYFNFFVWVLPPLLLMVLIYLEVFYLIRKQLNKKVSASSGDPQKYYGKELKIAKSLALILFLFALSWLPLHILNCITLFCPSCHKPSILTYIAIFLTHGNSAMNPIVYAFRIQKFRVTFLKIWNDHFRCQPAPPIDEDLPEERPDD
Method: (§1) For membrane preparation, the cells were washed with phosphate-buffered saline and scraped off T75 flasks in an ice-cold hypotonic buffer (5 mMTris-HCl, 1 mM EDTA, pH 7.4). The cell suspensions were homogenized with a Polytron, centrifuged for 30 min at 40,000× g at 4 °C and the resulting membrane pellets were used for competition binding experiments [44].
(§2) Non-specific binding was defined as binding in the presence of 1 μM DPCPX and was always <10% of the total binding [44]. […] Non-specific binding was defined as binding in the presence of 1 μM ABMECA and was always < 10% of the total binding [46]. Bound and free radioactivity were separated by filtering the assay mixture through Whatman GF/B glass fiber filters using a Brandel cell harvester (Brandel Instruments, Unterföhring, Germany).
(§3) The protein concentration was determined according to a Bio-Rad method with bovine albumin as a standard reference. […] Ki and IC50 values were calculated by the non-linear regression analysis using the equation for a sigmoid concentration-response curve (Graph-PAD Prism, San Diego, CA, USA).

hA2A AR = hA2A AR (Homo sapiens, UniProt P29274); test: Competition binding of [3H]ZM241385 to hA2A AR in CHO cell membranes
Sequence of hA2A AR (P29274 whole entry): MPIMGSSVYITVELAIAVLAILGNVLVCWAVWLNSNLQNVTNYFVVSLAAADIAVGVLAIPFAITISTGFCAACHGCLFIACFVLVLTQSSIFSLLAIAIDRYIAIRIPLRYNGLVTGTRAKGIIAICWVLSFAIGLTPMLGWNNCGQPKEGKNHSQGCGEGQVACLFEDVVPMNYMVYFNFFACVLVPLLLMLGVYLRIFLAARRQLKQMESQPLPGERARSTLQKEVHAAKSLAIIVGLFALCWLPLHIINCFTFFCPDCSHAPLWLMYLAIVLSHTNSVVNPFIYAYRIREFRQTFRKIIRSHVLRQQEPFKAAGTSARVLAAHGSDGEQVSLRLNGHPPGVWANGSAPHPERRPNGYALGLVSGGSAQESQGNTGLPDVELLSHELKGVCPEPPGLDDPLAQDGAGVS
Method: as §1, §2, §3

hA3 AR = molecular target: T3, hA3 AR (Homo sapiens, UniProt P0DMS8); test: Competition binding of [125I]AB-MECA to hA3 AR in CHO cell membranes; conditions: for inhibition at 10 µM: read-out: hA3AR percentage of inhibition (I%)
T3 sequence (P0DMS8 1-318): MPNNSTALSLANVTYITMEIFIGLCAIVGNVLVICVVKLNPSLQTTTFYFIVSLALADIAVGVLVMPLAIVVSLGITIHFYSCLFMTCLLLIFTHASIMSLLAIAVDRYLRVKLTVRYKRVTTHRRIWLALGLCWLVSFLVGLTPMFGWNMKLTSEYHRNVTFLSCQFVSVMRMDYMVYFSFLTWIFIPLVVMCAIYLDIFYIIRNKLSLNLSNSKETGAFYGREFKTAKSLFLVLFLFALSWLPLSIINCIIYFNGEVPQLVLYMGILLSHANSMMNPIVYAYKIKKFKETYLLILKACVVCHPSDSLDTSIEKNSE
Method: as §1, §2, §3

inhibition at 10 µM (hA2B AR) [%] | IC50 (hA2B AR) [nM] | melting point [°C] | Ki (hA1 AR) [nM] | Ki (hA2A AR) [nM] | Ki (hA3 AR) [nM] | inhibition at 10 µM (hA3 AR) [%] | hA1AR Ki (hA1 AR; displacement of [3H]DPCPX, CHO cells, mean ± SEM, n = 3–6) | SMILES
22 | > 10000 | 155 to 157 | 725 ± 67 | 187 ± 16 | > 10000 | 22 | – | Nc1nc(NCCN2CCC(Cc3ccccc3)CC2)nc2sc(-c3ccco3)nc12 [compound 10, N^5-(2-(4-Benzylpiperidin-1-yl)ethyl)-2-(furan-2-yl)thiazolo[5,4-d]pyrimidine-5,7-diamine]
26 | > 10000 | 133 to 135 | 798 ± 72 | 92 ± 8 | > 10000 | 17 | – | Nc1nc(NCCN2CCN(Cc3ccccc3)CC2)nc2sc(-c3ccco3)nc12 [compound 12, N^5-(2-(4-Benzylpiperazin-1-yl)ethyl)-2-(furan-2-yl)thiazolo[5,4-d]pyrimidine-5,7-diamine]
24 | > 10000 | 182 to 183 | 152 ± 11 | 88 ± 9 | > 10000 | 29 | good affinities | COc1ccc(CN2CCC(CNc3nc(N)c4nc(-c5ccco5)sc4n3)CC2)cc1 [compound 20, 2-(Furan-2-yl)-N^5-((1-(4-methoxybenzyl)piperidin-4-yl)methyl)thiazolo[5,4-d]pyrimidine-5,7-diamine]
